MIC data for seven compounds are collected here from DBAASP.

Among the test systems are Escherichia coli HB101; Escherichia coli W160-37; Staphylococcus aureus.
Assay in all cases: ≥ marks a high value that may be exact or a test limit, other limits are often not marked, values filed in µg/mL are converted to µM
The subject of assay [1] is Aspergillus awamori KCTC 6915.
The subject of assay [2] is Aspergillus flavus KCTC 6905.
The subject of assay [3] is Aspergillus fumigatus KCTC 6145.
Assay [4] has as its system Aspergillus parasiticus KCTC 6598.
Assay [5] concerns Bacillus subtilis KCTC 1918.
For assay [6], the system named is Bacillus subtilis KCTC 1998.
Assay [7] relates to Candida albicans KCTC 7270.
Assay [8] relates to Escherichia coli ATCC 25922.
In assay [9] the test system is Listeria monocytogenes ATCC 19115.
In assay [10] the test system is Listeria monocytogenes KCTC 3710.
The test system of assay [11] is Proteus vulgaris KCTC 2433.
Assay [12] deals with Pseudomonas aeruginosa ATCC 15692.
Assay [13] has as its system Pseudomonas aeruginosa KCTC 1637.
The test system of assay [14] is Salmonella typhimurium KCTC 1926.
For assay [15], the system named is Staphylococcus aureus ATCC 25923.
For assay [16], the system named is Staphylococcus epidermidis ATCC 12228.
The subject of assay [17] is Staphylococcus epidermidis KCTC 3096.
Assay [18] deals with Trichosporon beigelii KCTC 7707.
In assay [19] the test system is Corynebacterium glutamicum ATCC 13032.
Assay [20] concerns Pseudomonas aeruginosa ATCC 27853.
Assay [21] has as its system Staphylococcus aureus ATCC 9144.
The test system of assay [22] is Clavibacter michiganensis subsp. michiganensis DSM 46294.
Assay [23] concerns Pectobacterium carotovorum subsp. carotovorum DSM 30168.
For assay [24], the system named is Pseudomonas corrugata DSM 7228.
Assay [25] relates to Pseudomonas syringae pv. syringae DSM 10604.
Assay [26] relates to Pseudomonas syringae pv. tomato DC3000.
The test system of assay [27] is Staphylococcus aureus 90857.
Assay [28] deals with Xanthomonas vesicatoria DSM 50861.
Assay [29] has as its system Escherichia coli KCTC 2223.
In assay [30] the test system is Micrococcus luteus ATCC 10240.
In assay [31] the test system is Staphylococcus aureus ATCC 15752.

Values after ≈ are worked out from the molar mass of the structure shown. Values joined by “and” are separate entries in the source; they are usually repeats but may differ in a detail not shown here. Identical values can stand only once.

As a reminder, the MIC is the smallest concentration in the dilution series that meets the test's criterion for growth inhibition. A higher MIC goes with a less susceptible organism.

As to `CC[C@H](C)[C@H](NC(=O)[C@H](CCCCN)NC(=O)[C@H](CCCCN)NC(=O)[C@H](C)NC(=O)[C@H](CC(C)C)NC(=O)[C@H](CCCCN)NC(=O)[C@H](CCCCN)NC(=O)[C@H](CC(C)C)NC(=O)[C@H](CCCN=C(N)N)NC(=O)[C@H](CCCCN)NC(=O)[C@H](C)N)C(=O)N[C@@H](Cc1c[nH]c2ccccc12)C(=O)N[C@@H](CC(N)=O)C(=O)N[C@@H](Cc1c[nH]c2ccccc12)C(=O)N[C@@H](CCCCN)C(N)=O` [AKRLKKLAKKIWNWK], the MIC was 16 µM (≈ 30.6 µg/mL) in assay [1]; no less than 32 µM in [2]; 4 µM (≈ 7.64 µg/mL) in assay [3]; 8 µM (≈ 15.3 µg/mL) in [4]; 4 µM (≈ 7.64 µg/mL) in assay [5]; 4 µM (≈ 7.64 µg/mL) in assay [6]. The minimal inhibitory concentration (MIC) is 16 µM (≈ 30.6 µg/mL) in [7]; 22.6 µM (≈ 43.2 µg/mL) in [8]; 2 µM (≈ 3.82 µg/mL) in [9]; 2 µM (≈ 3.82 µg/mL) in [10]; 4 µM (≈ 7.64 µg/mL) in assay [11]; 2 µM (≈ 3.82 µg/mL) in assay [12]. Besides, the MIC in assay [13] was 2 µM (≈ 3.82 µg/mL); in assay [14], 2 µM (≈ 3.82 µg/mL); in assay [15], 5.66 µM and 16 µM; in [16], 16 µM (≈ 30.6 µg/mL); in [17] it was 16 µM (≈ 30.6 µg/mL); in assay [18], no less than 32 µM.

With `CC[C@H](C)[C@H](NC(=O)[C@@H]1CCCN1C(=O)[C@H](CCCCN)NC(=O)[C@@H]1CCCN1C(=O)[C@H](CCCN=C(N)N)NC(=O)CNC(=O)[C@@H]1CCCN1C(=O)[C@H](Cc1ccccc1)NC(=O)[C@@H]1CCCN1C(=O)[C@H](CCCN=C(N)N)NC(=O)[C@@H]1CCCN1C(=O)[C@H](CCCN=C(N)N)NC(=O)CN)C(=O)N[C@@H](Cc1ccccc1)C(=O)N[C@@H](CCCN=C(N)N)C(=O)N1CCC[C@H]1C(=O)N[C@@H](CCCN=C(N)N)C(=O)O` [GRPRPFPGRPKPIFRPR], the MIC in assay [19] is 3.1 µM (≈ 6.3 µg/mL); in assay [8], 70.7 µM (≈ 144 µg/mL); against Escherichia coli HB101, 25 µM (≈ 50.8 µg/mL); in [20], 70.7 µM (≈ 144 µg/mL); in assay [21], no less than 100 µM.

On to `CC[C@H](C)[C@H](NC(=O)[C@H](CC(C)C)NC(=O)[C@H](CCCCN)NC(=O)[C@H](CCCCN)NC(=O)[C@H](CC(C)C)NC(=O)[C@@H](NC(=O)[C@H](CCCCN)NC(=O)[C@H](CCCCN)NC(=O)[C@@H](NC(=O)[C@H](Cc1ccccc1)NC(=O)[C@H](CCCN=C(N)N)NC(=O)[C@@H](N)CC(C)C)[C@@H](C)CC)[C@@H](C)CC)C(N)=O` [LRFIKKILKKLI], for which the minimum inhibitory concentration (MIC) came out at 0.165 µM (≈ 0.25 µg/mL) in assay [22]; 1.65 µM (≈ 2.5 µg/mL) in assay [23]; 1.65 µM (≈ 2.5 µg/mL) in [24]; 0.165 µM (≈ 0.25 µg/mL) in [25]; 0.661 µM (≈ 0.999 µg/mL) in assay [26]; 0.625 µM (≈ 0.945 µg/mL) in assay [27]. In assay [28], this compound yielded an MIC of 0.0661 µM (≈ 0.0999 µg/mL).

`CC[C@H](C)[C@H](NC(=O)[C@H](CCCCN)NC(=O)[C@@H](NC(=O)[C@@H](N)CC(N)=O)[C@@H](C)CC)C(=O)N[C@@H](CO)C(=O)NCC(=O)N[C@@H](CCCCN)C(=O)N[C@@H](Cc1c[nH]c2ccccc12)C(=O)N[C@@H](CCCCN)C(=O)N[C@@H](C)C(=O)N[C@@H](CCC(N)=O)C(=O)N[C@@H](CCCCN)C(=O)N[C@@H](CCCN=C(N)N)C(=O)N[C@@H](Cc1ccccc1)C(=O)N[C@@H](CC(C)C)C(=O)N[C@@H](CCCCN)C(=O)O` [NIKISGKWKAQKRFLK]: the minimal inhibitory concentration (MIC) in assay [29], in assay [30] and in assay [31] was no less than 32 µM in each case.

Consider `CC[C@H](C)[C@H](NC(=O)[C@H](Cc1c[nH]c2ccccc12)NC(=O)[C@H](CCCCN)NC(=O)[C@H](CO)NC(=O)[C@H](CC(C)C)NC(=O)[C@H](Cc1ccccc1)NC(=O)[C@H](CCCCN)NC(=O)[C@H](CC(C)C)NC(=O)[C@H](CCCCN)NC(=O)[C@@H]1CCCN1)C(=O)NCC(=O)O` [PKLKFLSKWIG], for which the MIC was no less than 154 µM in the assay with Escherichia coli W160-37 and 154 µM (≈ 203 µg/mL) in the assay with Staphylococcus aureus.

Regarding `CC[C@H](C)[C@H](NC(=O)[C@@H]1CCCN1C(=O)[C@H](CCCCN)NC(=O)[C@@H]1CCCN1C(=O)[C@H](CCCN=C(N)N)NC(=O)CNC(=O)[C@@H]1CCCN1C(=O)[C@H](Cc1ccccc1)NC(=O)[C@@H]1CCCN1C(=O)[C@H](CCCN=C(N)N)NC(=O)[C@@H]1CCCN1)C(=O)N[C@@H](Cc1ccccc1)C(=O)N[C@@H](CCCN=C(N)N)C(=O)N1CCC[C@H]1C(=O)N[C@@H](CCCN=C(N)N)C(=O)O` [PRPFPGRPKPIFRPR], the MIC in assay [19] was 12.5 µM (≈ 22.7 µg/mL); in assay [8], greater than 100 µM; against Escherichia coli HB101, no less than 100 µM; in assay [20], greater than 100 µM; in [21] it was no less than 100 µM.

In the case of `CC(C)C[C@H](NC(=O)[C@H](CCCCN)NC(=O)[C@H](CCCCN)NC(=O)[C@H](CCCCN)NC(=O)[C@@H](N)CCCN=C(N)N)C(=O)N[C@@H](CCCCN)C(=O)N[C@H](C(=O)N[C@H](C(=O)N[C@@H](CCCCN)C(=O)N[C@@H](CCCN=C(N)N)C(=O)N[C@@H](CC(C)C)C(=O)N[C@H](C(N)=O)C(C)C)C(C)C)C(C)C` [RKKKLKVVKRLV], the MIC is 6.69 µM (≈ 9.99 µg/mL) in assay [22]; 6.69 µM (≈ 9.99 µg/mL) in [23]; 6.69 µM (≈ 9.99 µg/mL) in [24]; 3.34 µM (≈ 5 µg/mL) in assay [25]; 0.669 µM (≈ 0.999 µg/mL) in [26]; no less than 62.5 µM in assay [27]. In addition, the MIC in [28] came out at 6.69 µM (≈ 9.99 µg/mL).
